# Patent publication US20110195910A1, “USE OF TOCOTRIENOL COMPOSITION FOR THE PREVENTION OF CANCER” (DAVOS LIFE SCIENCE PTE. LTD., priority 2008, published 2011)
# Legend:
# [1] = system: prostate intraepithelial neoplasia (PIN); experiment: Prevention of prostate intraepithelial neoplasia (PIN) in prostate cancer mouse models; assay type: in vivo; settings: fed mice, FIG. 8
# Method: For experiments, 5-week old prostate cancer mouse models previously published (Gabril, M. Y., Duan, W., et al., Molecular Therapy (2005), vol. 11, no. 3, p. 348; Greenberg et al., Proc Natl Acad Sci USA (1995), vol. 92, pp. 3439-3443; Duan, W., Gabril, M. Y., et al., Oncogene (2005) 24, 1510-1524; Wang S, Gao J, et al., Cancer Cell., 2003, vol. 4, no. 3, pp. 209-21; Gabril, M. Y., Onita, T., et al., Gene Ther., 2002, vol. 9, no. 23, pp. 1589-99) are used. All animal experiments were conducted according to standard protocols approved by Animal Care Committee. Genotyping was performed in PSP-TGMAP, and KIMAP mice were identified by a quick PCR genotyping protocol as previously reported (see above references referred to under item 6).
# In one exemplary experiment, the animals are given 1 mg of gamma tocotrienol per day for 30 weeks via oral gavage. At the end of 10, 20 and 30 weeks, animals are sacrificed. The prostate along with the male accessory glands, i.e., the ventral and dorsolateral prostate lobes, seminal vesicles, and coagulation gland, were dissected out separately for histopathological characterization of prostate tumor development, prostate intraepithelial neoplasia (PIN) development and microinvasion. […]
# [2] = system: PC-3-Luc prostate cancer xenograft; experiment: PC-3-Luc prostate cancer xenograft model; assay type: in vivo, BALB/c athymic nude mice; settings: γ-T3 50 mg/kg/day, Docetaxel 7.5 mg/kg/week; by day 14th after start of treatment; control 620±10
# Method: 4.1.3 Establishment of the PC-3 prostate cancer xenograft model—Bioluminescent PC-3-Luc human prostate cancer cell line were generated according to known methods. Briefly, cDNA encoding the luciferase gene was cloned into the pLenti-6/V5. The construct was co-transfected with the packaging mix into HEK293 and lentivirus were collected and used for infecting PC-3 cells. Transfectants were obtained as a pool (PC-3-Luc) by selection with 10 μg/mL of Blasticidine for 1 week. The animal experimental protocol was approved by NACLAR (National Advisory Committee for Laboratory Animal Research) Guideline of Singapore for proper and humane use of animals. Male BALB/c athymic nude mice (4-5 weeks old, 18-22 g) were purchased from The Jackson Laboratory (Bar Harbor, Me., USA). […]
# Nude mice bearing similar tumor sizes of about 100 mm^3 (after 2 weeks inoculation) were selected and randomly divided into three groups (n=5 per group); control (DMSO as vehicle), γ-T3 (50 mg/kg/d) and combination treatment of γ-T3 and Docetaxel (50 mg of γ-T3/kg/d and 7.5 mg of Docetaxel/kg/wk). The mice were weighed as daily basic and the tumors were measured using a Digital Carbon Fiber Caliper (Fisher scientific, Pittsburgh, Pa.) at the same time. The tumor volume was calculated as 4/3*π*(mean diameter/2)^3. […]
compound,measurement,setting,value
"CC(C)=CCC/C(C)=C/CC/C(C)=C/CCC1(C)CCc2cc(O)c(C)c(C)c2O1 (centres unmarked) [γ-T3, 7,8-dimethyltocotrienol]",development of prostate intraepithelial neoplasia (PIN),[1],prevent the formation of prostate intraepithelial neoplasia (PIN)
same,tumor volume,[2],300±48 mm^3
